In paper PMC9823191, “Production, characterization and techno-economic evaluation of Aspergillus fusant L-asparaginase” (AMB Express, 2023):

System: T1, Fusant-06 L-ASNase
T1 construct: native extracellular enzyme from fusant fermentation broth; PEG/citrate ATPS then Sephadex G-100; may be recombined from both parents
Assay: ammonia release (Imada assay); Lineweaver-Burk plot
Type: biochemical
Conditions: L-asparagine 0.005–1.28 mM; 5 µg/mL (0.043 µM) enzyme; optimum conditions (pH and temperature not stated for the kinetics)

- Km: 66.7 µM
SMILES: NC(=O)C[C@H](N)C(=O)O [L-asparagine]
